Experimental findings from patent US20260265321A1, “PEPTIDE AND POLYPEPTIDE INHIBITING THE NF-KB SIGNALING PATHWAY” (Centre National de la Recherche Scientifique, priority 2023, published 2026) are described below.

For this experiment, the target named is T1, IKKβ(1-669) EE homodimer (Homo sapiens, UniProt O14920, S177E/S181E).
T1 construct: a nearly full-length (residues 1-669) and constitutively active (S177E/S181E) mutant construct of human IKKβ; 6×His (followed by TEV site) (N, cleaved yes); made in house; host or cells: Sf21 insect cells (baculovirus)
T1 sequence (O14920 1-669 S177E/S181E): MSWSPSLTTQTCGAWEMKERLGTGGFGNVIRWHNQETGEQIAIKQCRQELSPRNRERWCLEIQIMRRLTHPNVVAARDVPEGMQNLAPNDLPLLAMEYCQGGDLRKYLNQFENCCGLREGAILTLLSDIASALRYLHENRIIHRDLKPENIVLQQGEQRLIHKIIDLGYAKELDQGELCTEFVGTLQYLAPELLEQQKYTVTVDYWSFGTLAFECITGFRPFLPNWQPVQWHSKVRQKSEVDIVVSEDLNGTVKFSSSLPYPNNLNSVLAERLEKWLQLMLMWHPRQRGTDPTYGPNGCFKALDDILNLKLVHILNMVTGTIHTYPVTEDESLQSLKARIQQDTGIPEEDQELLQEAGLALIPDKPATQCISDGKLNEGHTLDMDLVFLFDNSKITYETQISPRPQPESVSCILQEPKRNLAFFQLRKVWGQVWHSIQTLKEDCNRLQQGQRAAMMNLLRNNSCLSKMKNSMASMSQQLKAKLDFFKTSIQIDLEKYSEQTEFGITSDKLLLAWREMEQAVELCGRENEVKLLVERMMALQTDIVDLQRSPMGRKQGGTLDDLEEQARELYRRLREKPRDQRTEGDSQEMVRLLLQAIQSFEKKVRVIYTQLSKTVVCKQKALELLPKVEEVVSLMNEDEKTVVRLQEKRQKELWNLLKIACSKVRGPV
Kind of experiment: Isothermal titration calorimetry (ITC) of peptide binding to IKKβ homodimer. Conditions: for N (binding stoichiometry of IKKβ: pep) / TΔS / ΔG / ΔH: 25° C.; for N (binding stoichiometry of IKKβ: pep): 1:1 binding model. As to the method:
All experiments were performed in ITC buffer (20 mM HEPES pH 8.0, 150 mM NaCl, 1 mM TCEP) unless otherwise stated. Purified IKKα(10-667) EE and IKKβ(1-669) EE protein samples were dialyzed overnight against ITC buffer at 4° C. Just before the ITC experiments, IKKα or IKKβ samples were concentrated, incubated at room temperature for 30 minutes and centrifuged at 11000 g to remove eventual precipitate. The final concentrations of IKKα and IKKβ in the sample cell varied between 22 and 50 μM depending on the measurement. HPLC purified synthetic peptides (IκBα pep) comprising residues 297-317 of IκBα were further desalted using a Nap5 (GE Healthcare, #17-0853-01) column equilibrated in milliQ water, lyophilized and then resuspended in ITC buffer. The concentration of peptides in the syringe varied between 220 and 975 μM depending on the measurement.
All ITC measurements were performed using a PEAQ-ITC MALVERN instrument. The titration parameters were set as following: temperature 25° C., reference power 10 μcal/s, feedback=high, stirring speed 750 RPM, initial delay 60 s, first injection 0.4 μl in 0.8 s and the remaining 19 injections were 2 μL in 4 s with 120 s of spacing. The data were fitted to a 1:1 binding model. All data were processed using NITPIC software and global fitting of two datasets was carried out using SEDPHAD.
To evaluate binding affinities, isothermal titration calorimetry (ITC) experiments were performed using a synthetic peptide that comprises the YDDφXφ motif plus the N-terminal acidic patch (residues 297-317, named IκBα pep hereafter) and purified IKKβ(1-669) EE homodimer or an equivalent construct of the IKKα homodimer (i.e. IKKα(10-667) S176E/S180E, named IKKα(10-667) EE hereafter). […] ITC analyses on the IKKα/β heterodimer were prevented by strong aggregation propensity at the concentrations required for these experiments.
All ITC experiments were performed at 25° C. The data were fitted to a 1:1 binding model. N refers to the binding stoichiometry of IKKα/β: pep, meaning that approximately half of total IKKα/β concentration binds pep ligand in agreement with the dimer form of IKKα/β being binding competent. The values for the IKKα interaction with IRF7 pep should be regarded as estimates due to low affinity and weakly exothermic binding, and therefore high experimental error and fitting uncertainty. All data were processed using NITPIC software and global fitting of two datasets was carried out using SEDPHAD.

Where two headings read alike, the source gives them in different places. Residues, ends and D or L forms follow the SMILES beside them.

The Kd is the equilibrium constant for the complex coming apart. For the compound `CC(C)C[C@H](NC(=O)[C@@H](NC(=O)[C@H](CC(C)C)NC(=O)[C@H](CCCNC(=N)N)NC(=O)[C@H](CCC(N)=O)NC(=O)CNC(=O)CNC(=O)[C@H](Cc1ccccc1)NC(=O)[C@@H](NC(=O)[C@H](CC(C)C)NC(=O)[C@H](CC(=O)O)NC(=O)[C@H](CC(=O)O)NC(=O)[C@H](Cc1ccc(O)cc1)NC(=O)[C@@H]1CCCN1C(=O)[C@H](CC(C)C)NC(=O)[C@H](CCC(=O)O)NC(=O)[C@H](CC(=O)O)NC(=O)[C@H](CCC(=O)O)NC(=O)[C@@H](NC(=O)[C@H](Cc1ccccc1)NC(=O)[C@@H](N)CCC(=O)O)[C@@H](C)O)C(C)C)[C@@H](C)O)C(=O)O` [IkBα pep C308L] (H-EFTEDELPYDDLVFGGQRLTL-OH; N-terminus and C-terminus assumed), for the setting “ITC”, the “enhancement of affinity to IKKβ relative to IκBα pep wt” value is 15 fold and the “N (binding stoichiometry of IKKβ: pep)” value stood at 0.63. Where the note is “ITC, IKKβ”, this compound came in with a TΔS of -19.2 kJ/mol, a ΔG of -31.8 kJ/mol and a ΔH of -51 kJ/mol. Besides, the Kd (ITC, IKKβ, read-out: KD) worked out at 2.6 µM.

`CC(C)C[C@H](NC(=O)[C@@H](NC(=O)[C@H](CC(C)C)NC(=O)[C@H](CCCNC(=N)N)NC(=O)[C@H](CCC(N)=O)NC(=O)CNC(=O)CNC(=O)[C@H](Cc1ccccc1)NC(=O)[C@@H](NC(=O)[C@H](CS)NC(=O)[C@H](CC(=O)O)NC(=O)[C@H](CC(=O)O)NC(=O)[C@H](Cc1ccc(O)cc1)NC(=O)[C@@H]1CCCN1C(=O)[C@H](CC(C)C)NC(=O)[C@H](CCC(=O)O)NC(=O)[C@H](CC(=O)O)NC(=O)[C@H](CCC(=O)O)NC(=O)[C@@H](NC(=O)[C@H](Cc1ccccc1)NC(=O)[C@@H](N)CCC(=O)O)[C@@H](C)O)C(C)C)[C@@H](C)O)C(=O)O` [IκBα pep] (H-EFTEDELPYDDCVFGGQRLTL-OH; N-terminus and C-terminus assumed) gave a Kd of 40 µM. Moreover, the “N (binding stoichiometry of IKKβ: pep)” value (ITC) is listed as 0.58. Further, under “ITC, IKKβ”, the TΔS was -40.9 kJ/mol, the ΔG was -25.1 kJ/mol and the ΔH is -66.1 kJ/mol.
